Where two headings read alike, the source gives them in different places.
How the values were obtained:
[1] = Commercial scale boiler comparison of oxygen scavenging
Protocol: Commercial scale comparisons were made between carbohydrazide and hydrazine. The tests were run on a system including a deaerator which treats a mixture of feed water and condensate at 60 p.s.i. and 300°-310° F. before it is fed to a first stage heater at 160 p.s.i. and 360°-366° F. and a second stage heater at 400 p.s.i. and 446°-450° F. The second stage heater then feeds into three boilers: a combination boiler at 1,275 p.s.i., a first power boiler at 1,275 p.s.i. and a second power boiler at 400 p.s.i. The treatment chemicals were fed alternatively at the deaerator and just down line from it.

Solubility in water = assay type: physicochemical
[2] = Corrosion control under static storage conditions; details: 160 moles or more of carbohydrazide per mole of oxygen
Text: The amount of carbohydrazide required to effectively scavenge oxygen from the boiler water is dependent upon the amount of oxygen actually present therein. It is generally desirable that at least 0.5 moles of carbohydrazide be used per mole of oxygen. These minimum levels of carbohydrazide will have the added benefit of effectively passivating metal surfaces. Of course, levels of carbohydrazide considerably in excess of 0.5 moles per mole of oxygen may be required, particularly for treating boiler water under static storage conditions.

[3] = Oxygen scavenging in heated copper coil apparatus (FIG. 1); details: 135° F.; pH 9.0; initial O2 7.7 ppm; corresponding scavenger:oxygen levels
Protocol: Another series of tests comparing hydrazine and carbohydrazide were carried out with the results presented in graphic form in FIG. 1. These tests were carried out at a temperature of 135° F. and a pH of 9.0 to prevent hydrolysis of the carbohydrazide.
The apparatus used including a reciprocating pump drawing water from a water reservoir and moving it through a heated copper coil at a rate of about 37 ml/minute. The coil was mounted in a cooling column and dissolved oxygen was measured at its outlet. The initial oxygen reading taken at this point for these tests was 7.7 ppm.
After the initial oxygen reading was taken, the scavenger being tested was injected into the feed line before the reciprocating pump.

[4] = Metal passivation in experimental firerod boiler (Table IV)
Text: Metal passivation studies were undertaken using an experimental firerod boiler under the following test conditions:
10 boiler water concentrations
40 ppm M alkalinity (as CaCO3)
A blank containing no oxygen scavenger was followed by test runs with hydrazine, carbohydrazide, and sodium sulfite.
*Tubes ranked by appearance of metal surface.

[5] = assay type: physicochemical; details: for Final Hydrazine Level / Percent Hydrolysis: fed at 100 ppm, pH 8.0, 600 p.s.i.
Text: High temperature hydrolysis studies were next carried out again using reagent grade carbohydrazide containing approximately 2% hydrazine as an impurity. The apparatus used in this work was the once-through experimental apparatus for simulating boiler water transport referred to in Example 2, with feedwater pH set at 8.0 and system pressure at 600 p.s.i.
^1 Carbohydrazide was fed at 100 ppm; complete hydrolysis of the
carbohydrazide would theoretically yield 71.1 ppm N2 H4.

[6] = Carbohydrazide vs. hydrazine in oxygen removal, once-through apparatus (Table III); details: for % O2 Removal / Final O2: initial O2 7.7 ppm, 227-239° F., pH about 10.5
Protocol: A once-through experimental apparatus for simulating boiler water transport was utilized in this example. Water temperature in this example was maintained at about 227°-239° F. and pH at about 10.5.

[7] = Protocol: A second more extensive group of potential oxygen scavengers were compared, again using a small laboratory boiler and oxygen saturated feed water containing sodium hydroxide. […] The hydrazine salts among this group are no less toxic than hydrazine and therefore were eliminated from further study. […] In addition, the carbohydrazide was preferred because it is a solid at room temperature and could therefore be used in dry formulations.
INITIAL SCREENING AT 227-239° F.

[8] = 282 °F., residence time 14.5 min
[9] = 343 °F., residence time 14.5 min
[10] = 400 °F., residence time 14.5 min
[11] = 400 °F., residence time 15.0 min

NNC(=O)NN [Carbohydrazide, N, N' diaminourea]
Oxygen scavenging relative to hydrazine, various points ([1]; carbohydrazide levels half those of hydrazine): comparable or superior to the hydrazine
Oxygen scavenging relative to hydrazine at 360° F. ([1]; just past first stage heater, carbohydrazide at 50% of hydrazine level): scavenged the oxygen more efficiently than the hydrazine
Oxygen scavenging relative to hydrazine at 446° F. ([1]; just past second stage heater, carbohydrazide at 50% of hydrazine level): scavenged the oxygen more efficiently than the hydrazine
Oxygen scavenging relative to hydrazine at 300° F. ([1]; just past the deaerator, carbohydrazide at 50% of hydrazine level): comparable with the hydrazine
Solubility in water (Solubility in water): freely soluble in water
Corrosion control under static conditions [2]: effective in controlling corrosion
Oxygen scavenging relative to hydrazine [3]: superior to the hydrazine
Tube Rank (by appearance of metal surface) ([4]; dosage 1 ppm, 600 p.s.i., 48 hour test): 1
Metal passivation effectiveness ([4]; under the test conditions, Table IV): the most effective metal passivator
Hydrolysis at 220° F. ([5]; 220° F.): minimal
Hydrolysis at 282° F. ([5]; 282° F.): minimal
Final Hydrazine Level [5, 8]: 7 ppm
Percent Hydrolysis [5, 8]: 7.0%
Hydrolysis at 340° F. through 400° F. ([5]; 340° F. through 400° F.): still not complete
Final Hydrazine Level [5, 9]: 45 ppm
Percent Hydrolysis [5, 9]: 60.5%
Final Hydrazine Level [5, 10]: 59 ppm
Percent Hydrolysis [5, 10]: 80.2%
Final Hydrazine Level [5, 11]: 61 ppm
Percent Hydrolysis [5, 11]: 83.0%
Hydrazine found ([5]; about 220° F.): less than 7%
Percent Hydrolysis ([5]; residence time 14.5 min): 0%
Final Hydrazine Level ([5]; temperature 21 °F. (so in the source), residence time 14.5 min): 2 ppm
% O2 Removal ([6]; ppm scavenger/ppm O2 0.05/1): 14.3%
Final O2 ([6]; ppm scavenger/ppm O2 0.05/1): 6.60 ppm
% O2 Removal ([6]; ppm scavenger/ppm O2 0.5/1): 57.4%
Final O2 ([6]; ppm scavenger/ppm O2 0.5/1): 3.28 ppm
% O2 Removal ([6]; ppm scavenger/ppm O2 5.0/1): 98.7%
Final O2 ([6]; ppm scavenger/ppm O2 5.0/1): 0.10 ppm
Amount needed for oxygen removal achieved with a given concentration of hydrazine ([6]; vs hydrazine, Table III): half as much
Scavenger ranking of the remaining two compounds [7]: the best scavenger
Oxygen scavenging activity relative to hydrazine ([7]; 227-239° F., Table II): activity comparable to hydrazine
% O2 Removal ([7]; initial O2 40 ppb, 227-239° F.): 87.5%
Final O2 ([7]; initial O2 40 ppb, 227-239° F.): 5 ppb

From patent publication US4269717A, “Boiler additives for oxygen scavenging” (priority 1980, dated 1981)
